The text below walks through data of US20240382629A1, “HETEROBIVALENT AND HOMOBIVALENT AGENTS TARGETING FIBROBLAST ACTIVATION PROTEIN ALPHA AND/OR PROSTATE-SPECIFIC MEMBRANE ANTIGEN” (The Johns Hopkins University, priority 2021, published 2024).

One data set deals with FAP (Homo sapiens (Human), UniProt Q12884). In words: FAP inhibition assay (recombinant enzyme, Z-Gly-Pro-AMC substrate). The class given is biochemical. Conditions: for Ki: read-out: FAP Ki. The method, then: (§1) PSMA binding affinities of the compounds were determined using a competitive inhibition assay as previously reported. […] FAP, prolyl endopeptidase (PREP), and […] (DPPIV) inhibition assays: Recombinant enzymes (FAP, PREP, DPPIV) were purchased from R&D Systems (Minneapolis, MN). […] Z-Gly-Pro-AMC was used as a substrate for FAP and PREP. H-Gly-Pro-AMC was used as a substrate for DPPIV. The recombinant enzyme (0.4 μg/mL) was incubated with varying amounts of the test articles in the presence of the designated substrate (80 μM) for 10 min at room temperature. Fluorescence intensity was measured with 380 nm excitation and 460 nm emission using the Cytation 5 Cell Imaging Multi-Mode Reader (BioTek, Winooski, VT). IC50 and Ki values were obtained using a sigmoidal dose-response function.

For another data set, the target named is PREP (Homo sapiens (Human), UniProt P48147). Nature of the data set: PREP inhibition assay (recombinant enzyme, Z-Gly-Pro-AMC substrate). The class given is biochemical. The method, then:
as §1

A further data set addresses DPPIV (Homo sapiens (Human), UniProt P27487). Nature of the data set: DPPIV inhibition assay (recombinant enzyme, H-Gly-Pro-AMC substrate). The class given is biochemical. On the procedure: as §1
For a further data set, the target named is PSMA (Homo sapiens (Human), UniProt Q04609). In words: PSMA competitive inhibition assay (NAAG substrate, LNCaP cell lysate). Type of data set: biochemical. Conditions: for Ki: read-out: PSMA Ki. On the procedure:
as §1

The next data set has as its system MDA-MB-231. Nature of the data set: Biodistribution in MB-MDA-231 NSG mice. The class given is in vivo, mouse. Set-up: Biodistribution: Spleen / Biodistribution: Fat / Biodistribution: Kidney / Biodistribution: Muscle / Biodistribution: Small Intestine / Biodistribution: Salivary Gland / Biodistribution: Lacrimal gland / Biodistribution: Bladder / Biodistribution: Bone / Biodistribution: MDA-MB-231 / Biodistribution: Blood / Biodistribution: Heart / Biodistribution: Lung / Biodistribution: Liver / Biodistribution: Stomach: unit not given here.

Where two headings read alike, the source gives them in different places.

Sequence of DPPIV (P27487 whole entry): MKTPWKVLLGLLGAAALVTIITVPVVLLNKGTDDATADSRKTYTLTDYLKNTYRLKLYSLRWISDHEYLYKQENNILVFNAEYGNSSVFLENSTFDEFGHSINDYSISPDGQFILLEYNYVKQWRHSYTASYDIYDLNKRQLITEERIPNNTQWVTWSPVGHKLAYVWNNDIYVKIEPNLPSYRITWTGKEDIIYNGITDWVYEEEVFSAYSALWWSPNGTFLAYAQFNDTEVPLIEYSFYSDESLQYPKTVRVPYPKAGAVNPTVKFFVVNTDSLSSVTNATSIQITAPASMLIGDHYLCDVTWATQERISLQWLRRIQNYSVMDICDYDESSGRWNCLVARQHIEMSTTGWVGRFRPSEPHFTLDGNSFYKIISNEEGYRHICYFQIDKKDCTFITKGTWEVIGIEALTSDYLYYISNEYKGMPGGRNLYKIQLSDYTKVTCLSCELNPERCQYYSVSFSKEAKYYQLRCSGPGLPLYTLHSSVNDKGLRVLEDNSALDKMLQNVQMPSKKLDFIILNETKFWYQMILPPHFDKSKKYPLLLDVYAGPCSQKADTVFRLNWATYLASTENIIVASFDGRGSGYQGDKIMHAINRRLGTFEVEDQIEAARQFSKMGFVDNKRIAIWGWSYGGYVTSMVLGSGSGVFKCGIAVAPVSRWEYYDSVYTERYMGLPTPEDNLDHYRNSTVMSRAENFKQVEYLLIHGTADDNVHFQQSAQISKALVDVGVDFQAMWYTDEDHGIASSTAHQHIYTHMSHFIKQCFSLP
Sequence of PSMA (Q04609 whole entry): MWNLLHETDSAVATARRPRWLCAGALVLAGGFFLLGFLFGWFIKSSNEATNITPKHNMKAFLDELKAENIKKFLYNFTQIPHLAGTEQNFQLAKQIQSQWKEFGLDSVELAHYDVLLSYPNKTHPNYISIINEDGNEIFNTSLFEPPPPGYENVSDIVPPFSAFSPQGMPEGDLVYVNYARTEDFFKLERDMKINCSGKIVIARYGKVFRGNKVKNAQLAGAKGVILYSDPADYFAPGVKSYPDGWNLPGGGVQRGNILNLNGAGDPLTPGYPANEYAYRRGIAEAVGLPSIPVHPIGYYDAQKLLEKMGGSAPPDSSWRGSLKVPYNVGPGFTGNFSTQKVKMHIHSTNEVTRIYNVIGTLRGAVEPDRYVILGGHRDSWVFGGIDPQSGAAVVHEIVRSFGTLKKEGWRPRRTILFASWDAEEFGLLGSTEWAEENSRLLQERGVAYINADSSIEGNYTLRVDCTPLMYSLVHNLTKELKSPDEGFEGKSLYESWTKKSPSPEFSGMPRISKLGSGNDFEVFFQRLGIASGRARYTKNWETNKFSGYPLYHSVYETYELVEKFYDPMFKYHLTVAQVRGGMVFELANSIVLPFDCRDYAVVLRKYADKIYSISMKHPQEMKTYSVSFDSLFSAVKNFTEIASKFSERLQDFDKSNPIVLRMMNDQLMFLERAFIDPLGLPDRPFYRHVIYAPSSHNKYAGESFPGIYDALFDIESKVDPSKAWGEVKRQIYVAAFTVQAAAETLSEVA
Sequence of PREP (P48147 whole entry): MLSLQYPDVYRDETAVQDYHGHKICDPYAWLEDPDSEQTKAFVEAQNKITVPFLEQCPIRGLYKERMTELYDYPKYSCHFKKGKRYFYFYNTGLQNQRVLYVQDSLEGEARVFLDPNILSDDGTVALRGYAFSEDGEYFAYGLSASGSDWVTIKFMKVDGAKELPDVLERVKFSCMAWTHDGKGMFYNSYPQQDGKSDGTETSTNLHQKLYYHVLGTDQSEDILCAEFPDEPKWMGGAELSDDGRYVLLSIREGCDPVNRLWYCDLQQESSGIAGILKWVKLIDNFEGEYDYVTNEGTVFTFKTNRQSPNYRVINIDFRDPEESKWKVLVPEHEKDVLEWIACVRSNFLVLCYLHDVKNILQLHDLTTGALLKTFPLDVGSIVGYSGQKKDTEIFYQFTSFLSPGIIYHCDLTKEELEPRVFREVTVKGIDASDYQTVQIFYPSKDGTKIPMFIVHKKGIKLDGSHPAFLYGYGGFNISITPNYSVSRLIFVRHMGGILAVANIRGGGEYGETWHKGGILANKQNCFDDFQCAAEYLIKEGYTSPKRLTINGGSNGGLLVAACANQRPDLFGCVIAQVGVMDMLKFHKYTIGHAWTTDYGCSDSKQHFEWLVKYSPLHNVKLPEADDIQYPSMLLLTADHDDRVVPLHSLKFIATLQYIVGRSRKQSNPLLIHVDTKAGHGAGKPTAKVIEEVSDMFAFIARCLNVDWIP
Sequence of FAP (Q12884 whole entry): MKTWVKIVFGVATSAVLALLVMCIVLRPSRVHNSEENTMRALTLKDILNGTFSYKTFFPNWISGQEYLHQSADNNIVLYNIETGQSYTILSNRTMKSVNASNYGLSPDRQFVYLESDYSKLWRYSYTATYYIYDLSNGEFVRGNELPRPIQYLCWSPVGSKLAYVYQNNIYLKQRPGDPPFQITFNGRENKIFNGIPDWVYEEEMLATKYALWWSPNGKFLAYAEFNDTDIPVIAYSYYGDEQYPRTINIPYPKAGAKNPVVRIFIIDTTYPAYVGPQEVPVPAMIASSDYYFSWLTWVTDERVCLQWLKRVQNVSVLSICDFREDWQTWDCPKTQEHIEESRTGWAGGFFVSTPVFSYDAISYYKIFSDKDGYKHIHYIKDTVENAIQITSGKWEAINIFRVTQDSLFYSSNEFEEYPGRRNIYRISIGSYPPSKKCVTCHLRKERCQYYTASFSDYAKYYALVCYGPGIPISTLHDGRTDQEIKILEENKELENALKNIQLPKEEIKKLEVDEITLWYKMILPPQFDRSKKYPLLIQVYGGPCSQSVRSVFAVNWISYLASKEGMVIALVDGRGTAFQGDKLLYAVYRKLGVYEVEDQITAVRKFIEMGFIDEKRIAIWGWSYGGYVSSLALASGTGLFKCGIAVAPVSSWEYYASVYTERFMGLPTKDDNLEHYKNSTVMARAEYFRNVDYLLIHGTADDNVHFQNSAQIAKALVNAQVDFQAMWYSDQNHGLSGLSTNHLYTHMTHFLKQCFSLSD

For the compound `N#C[C@@H]1CCCN1C(=O)CNC(=O)c1ccnc2ccc(OCCCNC(=O)CCc3cn(CCCC[C@H](NC(=O)CN4CCN(CC(=O)O)CCN(CC(=O)O)CCN(CC(=O)O)CC4)C(=O)NCCCCCC(=O)N(CCCC[C@H](NC(=O)N[C@@H](CCC(=O)O)C(=O)O)C(=O)O)Cc4ccc(Br)cc4)nn3)cc12` [SB-FAP-06], the IC50 on FAP (Table 4) came out at 1.84 nM; on PREP (Table 4), 370 nM; on DPPIV (Table 4, read-out: DPPIV IC50) it was 14.1 µM; on PSMA (Table 4) it was 4.71 nM. Also, the inhibition constant (Ki) was 0.37 nM on FAP (Table 4) and 0.94 nM at PSMA (Table 4).
Take `N#C[C@@H]1CCCN1C(=O)CNC(=O)c1ccnc2ccc(OCCCNC(=O)[C@@H](CC(=O)O)NC(=O)[C@@H](CC(=O)O)NC(=O)c3cccc(F)n3)cc12` [JHU1221708]: the IC50 is 1.19 nM on FAP (Table 3); 6910 nM at PREP (Table 3); 7.91 µM at DPPIV (Table 3, read-out: DPPIV IC50). The Ki at FAP (Table 3) turned out to be 0.24 nM.
As for `N#C[C@@H]1CCCN1C(=O)CNC(=O)c1ccnc2ccc(OCCCNC(=O)CCc3cn(CCCC[C@H](NC(=O)c4ccc(F)nc4)C(=O)NCCNC(=O)CCC(C(=O)O)N4CCN(CC(=O)O)CCN(CC(=O)O)CCN(CC(=O)O)CC4)nn3)cc12` (stereo partly drawn) [SB-FAP-11, 2,2′,2″-(10-(1-Carboxy-4-((2-((S)-6-(4-(3-((3-((4-((2-((S)-2-cyanopyrrolidin-1-yl)-2-oxoethyl)carbamoyl)quinolin-6-yl)oxy)propyl)amino)-3-oxopropyl)-1H-1,2,3-triazol-1-yl)-2-(6-fluoronicotinamido)hexanamido)ethyl)amino)-4-oxobutyl)-1,4,7,10-tetraazacyclododecane-1,4,7-triyl)triacetic acid], the IC50 on FAP (Table 3) was 0.35 nM; at PREP (Table 3), 510 nM; at DPPIV (Table 3, read-out: DPPIV IC50), 9.48 µM. Moreover, the inhibitory constant (Ki) on FAP (Table 3) was found to be 0.07 nM.
Taken in the same sequence, the figures for `N#C[C@@H]1CCCN1C(=O)CNC(=O)c1ccnc2c(F)cccc12` [JHU1220502] were 5.04 nM, 84.5 nM, over 20 µM and 1.01 nM.
As to `N#C[C@@H]1CC(F)(F)CN1C(=O)CNC(=O)c1ccnc2ccc(F)cc12` [JHU1220466], the 50% inhibitory concentration (IC50) is 0.31 nM on FAP (Table 3); 47 nM at PREP (Table 3); 3.5 µM on DPPIV (Table 3, read-out: DPPIV IC50). Besides, the Ki at FAP (Table 3) turned out to be 0.062 nM.
Taken in the same sequence, the figures for `N#C[C@@H]1C[C@H](F)CN1C(=O)CNC(=O)c1ccnc2ccc(F)cc12` [JHU1220471] were 0.734 nM, 11.5 nM, 2.53 µM and 0.147 nM.
Taken in the same sequence, the figures for `N#CC1CCCN1C(=O)CNC(=O)c1ccnc2ccc(OCCCNC(=O)CCc3cn(CCCC[C@H](NC(=O)CN4CCN(CC(=O)O)CCN(CC(=O)O)CC4)C(=O)NCCCOc4ccc5nccc(C(=O)NCC(=O)N6CCC[C@H]6C#N)c5c4)nn3)cc12` (some centres unmarked) [SB-FAP-09] were 0.48 nM, 630 nM, 2.05 µM and 0.1 nM.
As to `N#CC1CCCN1C(=O)CNC(=O)c1ccnc2ccc(OCCCNC(=O)CCc3cn(CC[C@H](NC(=O)CN4CCN(CC(=O)O)CCN(CC(=O)O)CC4)C(=O)NCCCCCC(=O)NCCCC[C@H](NC(=O)N[C@@H](CC(=O)O)C(=O)O)C(=O)O)nn3)cc12` (some centres unmarked) [SRI-07-42], the 50% inhibitory concentration (IC50) on FAP (Table 4) amounted to 2.23 nM; at PREP (Table 4), 11200 nM; on DPPIV (Table 4, read-out: DPPIV IC50), 9.91 µM; on PSMA (Table 4), 4710 nM. The inhibition constant (Ki) on FAP (Table 4) came to 0.45 nM; at PSMA (Table 4), 940 nM.
For `N#C[C@@H]1CCCN1C(=O)CNC(=O)c1ccnc2ccc(OCCCNC(=O)CCc3cn(CCCC[C@H](NC(=O)CN4CCN(CC(=O)O)CCN(CC(=O)O)CC4)C(=O)NCCCCCC(=O)N(CCCC[C@H](NC(=O)N[C@@H](CCC(=O)O)C(=O)O)C(=O)O)Cc4ccc(Br)cc4)nn3)cc12` [SB-FAP-07], the IC50 turned out to be 0.65 nM at FAP (Table 4); 1070 nM on PREP (Table 4); 11.7 µM at DPPIV (Table 4, read-out: DPPIV IC50); 39.6 nM at PSMA (Table 4). Further, the inhibitory constant (Ki) was found to be 0.13 nM at FAP, 0.21 µM on PREP, 3040 nM at DPPIV and 7.92 nM at PSMA.
For the compound `N#C[C@@H]1CCCN1C(=O)CNC(=O)c1ccnc2ccc(OCCOCCNC(=O)[C@H](CCCCNC(=O)c3ccc(F)nc3)NC(=O)CN3CCN(CC(=O)O)CCN(CC(=O)O)CCN(CC(=O)O)CC3)cc12` [JHU1221803], the IC50 turned out to be 1.4 nM on FAP (Table 3); 1090 nM at PREP (Table 3); 6.22 µM on DPPIV (Table 3, read-out: DPPIV IC50). For the same compound, the Ki on FAP (Table 3) is 0.28 nM.
Regarding `N#C[C@@H]1CCCN1C(=O)CNC(=O)c1ccnc2ccc(OCCCNC(=O)CCc3cn(CCOCCOCCOCCC(=O)N[C@@H](CCCCNC(=O)CCC(C(=O)O)N4CCN(CC(=O)O)CCN(CC(=O)O)CCN(CC(=O)O)CC4)C(=O)NCCCCC(=O)N(CCCC[C@H](NC(=O)N[C@@H](CCC(=O)O)C(=O)O)C(=O)O)Cc4ccc(Br)cc4)nn3)cc12` (some centres unmarked) [SB-FAP-03], the IC50 on FAP (Table 4) came to 3.42 nM; at PREP (Table 4), 1370 nM; on DPPIV (Table 4, read-out: DPPIV IC50) it was 18.4 µM; on PSMA (Table 4), 14.5 nM. In addition, the Ki came to 0.68 nM on FAP (Table 4) and 2.89 nM on PSMA (Table 4).
In the case of `N#C[C@@H]1CCCN1C(=O)CNC(=O)c1ccnc2ccc(OCCCN(Cc3ccc(F)nc3)C(=O)CN3CCN(CC(=O)O)CCN(CC(=O)O)CCN(CC(=O)O)CC3)cc12` [JHU1221709], the IC50 on FAP (Table 3) was 2.09 nM; at PREP (Table 3), 22000 nM; at DPPIV (Table 3, read-out: DPPIV IC50), 12.6 µM. Also, the Ki at FAP (Table 3) came out at 0.42 nM.
Taken in the same sequence, the figures for `N#C[C@@H]1CCCN1C(=O)CNC(=O)c1ccnc2cccc(F)c12` [JHU1219438] were 0.912 nM, 95.8 nM, over 20 µM and 0.182 nM.
Regarding `N#C[C@@H]1CCCN1C(=O)CNC(=O)c1ccnc2ccc(OCCCNC(=O)CNC(=O)[C@H](CCCCNC(=O)c3ccc(F)nc3)NC(=O)CN3CCN(CC(=O)O)CCN(CC(=O)O)CCN(CC(=O)O)CC3)cc12` [JHU1221804], the IC50 at FAP (Table 3) was found to be 1.01 nM; at PREP (Table 3), 1710 nM; at DPPIV (Table 3, read-out: DPPIV IC50), 8.31 µM. In addition, the inhibitory constant (Ki) at FAP (Table 3) amounted to 0.2 nM.
Consider `N#C[C@@H]1CCCN1C(=O)CNC(=O)c1ccnc2ccc(OCCCNC(=O)CCc3cn(CCOCCOCCOCCC(=O)N[C@@H](CCCCNC(=O)CN4CCN(CC(=O)O)CCN(CC(=O)O)CC4)C(=O)NCCCCC(=O)N(CCCC[C@H](NC(=O)N[C@@H](CCC(=O)O)C(=O)O)C(=O)O)Cc4ccc(Br)cc4)nn3)cc12` [SB-FAP-02], for which, on FAP (Table 4), the IC50 amounted to 1.53 nM and the inhibitory constant (Ki) stood at 0.31 nM. For the same compound, the Ki at FAP stood at 0.31 nM. Further, the inhibitory constant (Ki) at PREP stood at 116 µM. Further, the half-inhibitory concentration (IC50) at PREP (Table 4) stood at 580 nM. In addition, on DPPIV, the inhibition constant (Ki) worked out at 1760 nM. The half-inhibitory concentration (IC50) at DPPIV (Table 4, read-out: DPPIV IC50) was found to be 8.81 µM. Besides, on PSMA (Table 4), the 50% inhibitory concentration (IC50) was found to be 90 nM and the inhibition constant Ki was found to be 18.1 nM. The Ki at PSMA was found to be 18.1 nM. In addition, at PSMA (relative to FP-L2), the “PSMA binding affinity, fold lower than FP-L2” value amounted to 2 fold. For the same compound, in the data set with MDA-MB-231 (At 1 h nude mice), the “Biodistribution: Blood” value came to 8.47 ± 0.16, the “Biodistribution: Bone” value is recorded as 3.34 ± 0.32, the “Biodistribution: Fat” value is recorded as 0.61 ± 0.31 and the “Biodistribution: Heart” value came to 3.46 ± 0.07. In the data set on MDA-MB-231 (At 1 h nude mice), the “Biodistribution: Kidney” value is 12.14 ± 1.39, the “Biodistribution: Lacrimal gland” value is on record as 6.61 ± 1.23, the “Biodistribution: Liver” value is on record as 6.74 ± 0.16 and the “Biodistribution: Lung” value stood at 5.16 ± 0.04. Further, in the data set on MDA-MB-231 (At 1 h nude mice), the “Biodistribution: MDA-MB-231” value stood at 3.60 ± 0.32, the “Biodistribution: Muscle” value was determined as 1.59 ± 0.07, the “Biodistribution: Pancreas” value stood at 4.95 ± 0.24 and the “Biodistribution: Salivary Gland” value stood at 7.75 ± 0.99. Further, in the data set on MDA-MB-231 (At 1 h nude mice), the “Biodistribution: Small Intestine” value is listed as 6.69 ± 0.82, the “Biodistribution: Spleen” value worked out at 2.38 ± 0.04 and the “Biodistribution: Stomach” value was determined as 2.72 ± 0.30. Moreover, the “Biodistribution: Bladder” value in the data set with MDA-MB-231 (At 2 h NSG mice) is reported as 1.82 ± 0.26.
`N#C[C@@H]1CCCN1C(=O)CNC(=O)c1ccnc2ccc(OCCCNC(=O)[C@@H](CC(=O)O)NC(=O)[C@@H](CC(=O)O)NC(=O)c3ccc(F)nc3)cc12` [JHU1221785]: the half-maximal inhibitory concentration (IC50) on FAP (Table 3) turned out to be 1.31 nM; on PREP (Table 3), 86600 nM; at DPPIV (Table 3, read-out: DPPIV IC50) it was 17.7 µM. For the same compound, the Ki on FAP (Table 3) amounted to 0.26 nM.
`N#C[C@@H]1CCCN1C(=O)CNC(=O)c1ccnc2ccc(OCCF)cc12` [JHU1220470]: the IC50 on FAP (Table 3) is 0.343 nM; on PREP (Table 3), 1410 nM; at DPPIV, over 20 µM. For the same compound, the Ki on FAP (Table 3) worked out at 0.0686 nM.

As a reminder, the IC50 is the point on the concentration scale where inhibition reaches its midpoint. As usually defined, the Ki is a measure of affinity in units of concentration, obtained from inhibition or displacement.
